Test results reported in patent US7915276B2, “Berberrubine derivatives having antifungal activities” (priority 2006, dated 2011).

What was measured:
[1] = test system: Aspergillus flavus ATCC 64025; assay: In vitro antifungal activity (MIC), NCCLS method; assay type: cell-based; conditions: 48 hours
Outline: (§1)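 Two-fold dilutions, final inoculum 5×10^2–2.5×10^3 cell/mL, NCCLS protocol; 48 h culture for these strains. MIC = minimum inhibitory concentration.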

[2] = test system: Candida lusitaniae ATCC 42720; assay: In vitro antifungal activity (MIC), NCCLS method; assay type: cell-based; conditions: 48 hours
Outline: as §1

[3] = test system: Mucor ramosissimus ATCC 90286; assay: In vitro antifungal activity (MIC), NCCLS method; assay type: cell-based; conditions: 48 hours
Outline: as §1

[4] = test system: Candida albicans ATCC 10231; assay: In vitro antifungal activity (MIC), NCCLS method; assay type: cell-based; conditions: 48 hours
Outline: as §1

[5] = test system: Candida tropicalis ATCC 13803; assay: In vitro antifungal activity (MIC), NCCLS method; assay type: cell-based; conditions: 48 hours
Outline: as §1

[6] = test system: Candida albicans A207 (clinical isolate); assay: In vitro antifungal activity (MIC), NCCLS method; assay type: cell-based; conditions: 48 hours
Outline: (§2)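 Broth microdilution per NCCLS: two-fold serial dilutions of test compound inoculated with fungal suspension at a final 5×10^2 to 2.5×10^3 cell/mL. Strains other than Cryptococcus neoformans were incubated 48 hours before MIC reading.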

[7] = test system: Cryptococcus neoformans ATCC 36556; assay: In vitro antifungal activity (MIC), NCCLS method; assay type: cell-based; conditions: RPMI 1640 medium, 72 hours
Outline: as §2

[8] = test system: Aspergillus terreus ATCC 46941; assay: In vitro antifungal activity (MIC), NCCLS method; assay type: cell-based; conditions: 48 hours
Outline: as §1

Candida krusei ATCC 6258 = assay: In vitro antifungal activity (MIC), NCCLS method; assay type: cell-based; conditions: 48 hours
Outline: as §1

[9] = test system: Candida parapsilosis ATCC 34136; assay: In vitro antifungal activity (MIC), NCCLS method; assay type: cell-based; conditions: Candida parapsilosis ATCC 34136; 48 hours
Outline: as §1

[10] = test system: Aspergillus fumigatus ATCC 16424; assay: In vitro antifungal activity (MIC), NCCLS method; assay type: cell-based; conditions: 48 hours
Outline: as §1

[11] = test system: Candida glabrata ATCC 48435; assay: In vitro antifungal activity (MIC), NCCLS method; assay type: cell-based; conditions: Candida glabrata ATCC 48435; 48 hours
Outline: as §1

[12] = target: T1, chitin synthase 1 of Candida albicans chs2 Δ chs 3 Δ (Candida albicans, UniProt P23316); assay: In vitro enzyme assay for chitin synthase 1 of Candida albicans (enzyme 1); assay type: biochemical; conditions: relative to polyoxin D (50% inhibitory activity = value 5)
T1 construct: Crude enzyme was prepared using the Candida albicans chs2 Δ chs 3 Δ mutant; endogenous in cells; host or cells: Candida albicans chs2Δ/chs2Δ chs3Δ/chs3Δ mutant; 130,000 x g membrane pellet
Outline: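 Trypsin-activated crude membrane chitin synthase 1 from C. albicans chs2Δ chs3Δ was incubated 90 min at 30 °C with 1.1 mM UDP-[14C]GlcNAc and 2 mM cobalt acetate in Tris-HCl pH 7.5. Filtered TCA precipitate was counted by scintillation; values are scores 1–8 against polyoxin D (5 = same concentration).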

[13] = target: T2, chitin synthase 2 of Saccharomyces cerevisiae ECY38-38A(pAS6) (Saccharomyces cerevisiae, UniProt P14180); assay: In vitro enzyme assay for chitin synthase 2 of Saccharomyces cerevisiae (enzyme 2); assay type: biochemical; conditions: relative to polyoxin D (50% inhibitory activity = value 5)
T2 construct: made in house; host or cells: Saccharomyces cerevisiae ECY38-38A (chs1-23 chs2::LEU2 cal1/csd2) carrying plasmid pAS6, grown in galactose medium; 130,000 x g membrane pellet
Outline: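 Values are scores: 5 means 50% inhibition at the same concentration as polyoxin D, lower scores 2- to 16-fold higher concentration, higher scores ½ to ⅛. Radiolabel from 1.1 mM UDP-[14C]-GlcNAc was incorporated into TCA-insoluble chitin over 90 min at 30 °C (pH 7.5 Tris, 2 mM Co2+). The enzyme was a trypsin-activated membrane fraction from CHS2-only S. cerevisiae ECY38-38A(pAS6).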

human pathogenic fungi = assay: Antifungal activity against human pathogenic fungi (summary statements); assay type: cell-based
Source text: Candida albicans ATCC 10231, Candida lusitaniae ATCC 42720, Candida krusei ATCC 6258, Candida tropicalis ATCC 13803, Candida glabrata ATCC 48435, Candida parapsilosis ATCC 34136, Cryptococcus neoformans ATCC 36556, Aspergillus fumigatus ATCC 16424, Aspergillus flavus ATCC 64025, Aspergillus terreus ATCC 46941 and Mucor ramosissimus ATCC 90286 strains for the MIC (minimum inhibitory concentration) measurement were obtained from ATCC (American Type Culture Collection) in the U.S. The Candida albicans A207(clinical isolate) strain was used by isolating it from the patients.
The determination of MIC was performed according to the NCCLS (National Committee for Clinical Laboratory Standard) method. Each test sample solution was diluted two-fold and inoculated with a fungal suspension to reach a final inoculum size of 5×10^2 to 2.5×10^3 cell/mL. The Cryptococcus neoformans strain was cultured in the RPMI 1640 medium for 72 hours. Other strains were cultured for 48 hours.

chitin synthases = assay: Inhibitory activity against the chitin synthases (summary statements); assay type: biochemical
Source text: The inhibitory activities against the chitin synthase 1 of Candida albicans chs2 Δ chs 3 Δ (abbreviated as ‘enzyme 1’) and the chitin synthase 2 of Saccharomyces cerevisiae ECY38-38A(pAS6)(abbreviated as ‘enzyme 2’) was examined for compound Nos. 1 to 70 compound and polyoxin D, a positive control compound.
The inhibitory activity against the chitin synthase 1 prepared from Candida albicans and the chitin synthase 2 prepared from Saccharomyces cerevisiae were examined as follows. A reaction mixture containing 32 mM Tris-HCl (pH 7.5), 2 mM cobalt acetate, 1.1 mM UDP-[U-^14C]-N-acetyl-d-glucosamine (GlcNAc) (400,000 cpm/μmol), 2 μL of trypsin (0.75 mg/mL), 20 μL of each crude enzyme and 14 μL of each test sample was kept at 30° C. for 15 minutes to activate the enzyme. Then, 2 μL of trypsin inhibitor (1.5 mg/mL) was added and the mixture was kept in an ice bath for 10 minutes to deactivate trypsin. 2 μL of 0.8 M N-acetyl-d-glucosamine was added to a total volume of 50 μL and reaction was performed at 30° C. for 90 minutes. The reaction was stopped using 1 mL of 10% TCA solution and the reaction solution was filtered with a GF/C filter and dried at room temperature. After adding 3 mL of a scintillation cocktail solution, the amount of isotopes was measured using a liquid scintillation counter. Percentage inhibition against each enzyme was calculated by the following Equation 1.

T1 sequence (P23316 whole entry, stated change not applied): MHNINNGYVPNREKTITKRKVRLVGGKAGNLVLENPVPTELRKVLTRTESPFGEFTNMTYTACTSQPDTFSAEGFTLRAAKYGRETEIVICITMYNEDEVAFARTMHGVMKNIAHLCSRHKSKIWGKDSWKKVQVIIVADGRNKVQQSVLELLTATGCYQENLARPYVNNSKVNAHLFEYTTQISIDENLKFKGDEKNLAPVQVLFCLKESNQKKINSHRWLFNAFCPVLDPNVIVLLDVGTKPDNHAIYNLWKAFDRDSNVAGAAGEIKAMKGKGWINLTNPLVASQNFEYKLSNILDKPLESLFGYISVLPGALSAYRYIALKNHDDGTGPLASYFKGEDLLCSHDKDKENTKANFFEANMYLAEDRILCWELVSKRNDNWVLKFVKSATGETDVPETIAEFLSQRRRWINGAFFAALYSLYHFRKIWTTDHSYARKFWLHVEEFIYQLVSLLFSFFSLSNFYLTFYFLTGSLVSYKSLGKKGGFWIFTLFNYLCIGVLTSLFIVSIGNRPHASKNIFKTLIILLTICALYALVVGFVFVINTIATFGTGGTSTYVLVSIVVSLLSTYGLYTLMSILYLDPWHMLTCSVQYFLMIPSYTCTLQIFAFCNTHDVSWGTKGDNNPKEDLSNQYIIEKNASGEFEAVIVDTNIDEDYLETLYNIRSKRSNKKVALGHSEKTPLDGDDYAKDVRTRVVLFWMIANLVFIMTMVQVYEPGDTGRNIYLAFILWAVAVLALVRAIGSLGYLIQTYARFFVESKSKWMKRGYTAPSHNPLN
T2 sequence (P14180 whole entry): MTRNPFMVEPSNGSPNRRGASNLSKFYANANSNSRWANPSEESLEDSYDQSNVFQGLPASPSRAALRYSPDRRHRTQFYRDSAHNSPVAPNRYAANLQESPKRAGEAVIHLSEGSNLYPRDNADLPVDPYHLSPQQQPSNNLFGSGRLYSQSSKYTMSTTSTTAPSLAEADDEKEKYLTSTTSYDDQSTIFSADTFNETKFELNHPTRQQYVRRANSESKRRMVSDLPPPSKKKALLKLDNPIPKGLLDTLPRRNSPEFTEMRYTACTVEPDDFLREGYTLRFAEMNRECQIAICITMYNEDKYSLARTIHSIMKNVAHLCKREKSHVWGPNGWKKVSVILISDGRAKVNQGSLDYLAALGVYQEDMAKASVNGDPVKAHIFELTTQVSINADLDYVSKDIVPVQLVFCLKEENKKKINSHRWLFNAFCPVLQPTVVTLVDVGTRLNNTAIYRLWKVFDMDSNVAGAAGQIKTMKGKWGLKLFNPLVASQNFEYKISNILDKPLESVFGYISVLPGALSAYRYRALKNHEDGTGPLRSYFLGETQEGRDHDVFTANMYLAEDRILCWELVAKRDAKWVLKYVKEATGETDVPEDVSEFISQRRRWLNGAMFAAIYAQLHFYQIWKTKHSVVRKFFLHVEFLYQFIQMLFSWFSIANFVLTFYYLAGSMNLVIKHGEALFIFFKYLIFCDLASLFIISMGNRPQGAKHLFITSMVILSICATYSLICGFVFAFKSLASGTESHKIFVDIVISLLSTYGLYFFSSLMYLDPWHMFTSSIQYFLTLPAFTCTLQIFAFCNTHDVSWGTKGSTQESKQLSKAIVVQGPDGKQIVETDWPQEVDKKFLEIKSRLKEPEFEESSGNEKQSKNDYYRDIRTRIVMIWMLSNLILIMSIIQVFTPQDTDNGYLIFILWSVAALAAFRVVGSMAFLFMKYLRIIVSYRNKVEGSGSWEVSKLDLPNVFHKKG

Row | Substance | MIC (minimum inhibitory concentration) [1] [µg/mL] | MIC (minimum inhibitory concentration) [2] [µg/mL] | MIC (minimum inhibitory concentration) [3] [µg/mL] | MIC (minimum inhibitory concentration) [4] [µg/mL] | MIC (minimum inhibitory concentration) [5] [µg/mL] | MIC (minimum inhibitory concentration) [6] [µg/mL] | MIC (minimum inhibitory concentration) [7] [µg/mL] | MIC (minimum inhibitory concentration) [8] [µg/mL] | MIC (minimum inhibitory concentration) (Candida krusei ATCC 6258) [µg/mL] | MIC (minimum inhibitory concentration) [9] [µg/mL] | MIC (minimum inhibitory concentration) [10] [µg/mL] | MIC (minimum inhibitory concentration) [11] [µg/mL] | Relative activity Enzyme 1 [12] | Relative activity Enzyme 2 [13] | antifungal activities compared with amphotericin B (in words) (human pathogenic fungi) | inhibitory activities against the chitin synthases (in words) (chitin synthases)
1 | 13-(4-Isopropylbenzyl)-9-O-butylberberrubine iodide [Compound No. 18] | 8 | 1 | 4 | 0.5 | 0.25 | 0.5 | 1 | 8 | 1 | 4 | 2 | 4 | 4 (Compounds having the inhibitory activity at 2-fold, 4-fold, 8-fold and 16-fold higher concentrations than that of polyoxin D were given the values of 4, 3, 2 and 1, respectively) | 7 (compounds having the inhibitory activity at ½, ¼ and ⅛ lower concentrations than that of polyoxin D were given the values of 6, 7 and 8, respectively) | comparable to that of amphotericin B | exceptionally superior inhibitory activities
2 | 13-(4-Isopropylbenzyl)-9-O-propylberberrubine chloride [Compound No. 49] | 8 | 1 | 4 | 1 | 0.5 | 1 | 2 | 8 | 2 | 4 | 4 | 4 | 4 (Compounds having the inhibitory activity at 2-fold, 4-fold, 8-fold and 16-fold higher concentrations than that of polyoxin D were given the values of 4, 3, 2 and 1, respectively) | 7 (compounds having the inhibitory activity at ½, ¼ and ⅛ lower concentrations than that of polyoxin D were given the values of 6, 7 and 8, respectively) | comparable to that of amphotericin B | exceptionally superior inhibitory activities
3 | 13-(4-Isopropylbenzyl)-9-O-propylberberrubine iodide [Compound No. 17] | 8 | 2 | 4 | 1 | 0.5 | 1 | 2 | 8 | 2 | 4 | 4 | 4 | 4 (Compounds having the inhibitory activity at 2-fold, 4-fold, 8-fold and 16-fold higher concentrations than that of polyoxin D were given the values of 4, 3, 2 and 1, respectively) | 7 (compounds having the inhibitory activity at ½, ¼ and ⅛ lower concentrations than that of polyoxin D were given the values of 6, 7 and 8, respectively) | comparable to that of amphotericin B | exceptionally superior inhibitory activities
4 | 13-(4-tert-Butylbenzyl)-9-O-butylberberrubine chloride [Compound No. 40] | 8 | 0.5 | 4 | 0.5 | 0.25 | 0.5 | 1 | 8 | 1 | 4 | 2 | 4 | 4 (Compounds having the inhibitory activity at 2-fold, 4-fold, 8-fold and 16-fold higher concentrations than that of polyoxin D were given the values of 4, 3, 2 and 1, respectively) | 7 (compounds having the inhibitory activity at ½, ¼ and ⅛ lower concentrations than that of polyoxin D were given the values of 6, 7 and 8, respectively) | comparable to that of amphotericin B | exceptionally superior inhibitory activities
5 | 13-(4-tert-Butylbenzyl)-9-O-propylberberrubine chloride [Compound No. 39] | 8 | 1 | 4 | 1 | 0.5 | 1 | 2 | 8 | 2 | 4 | 4 | 4 | 4 (Compounds having the inhibitory activity at 2-fold, 4-fold, 8-fold and 16-fold higher concentrations than that of polyoxin D were given the values of 4, 3, 2 and 1, respectively) | 7 (compounds having the inhibitory activity at ½, ¼ and ⅛ lower concentrations than that of polyoxin D were given the values of 6, 7 and 8, respectively) | comparable to that of amphotericin B | exceptionally superior inhibitory activities
